What was measured:
[1] = molecular target: T1, Ba/F3(EML4-ALK) cells (Homo sapiens, UniProt Q9UM73); test: Assay of activity on Ba/F3(EML4-ALK) cells (CTG, 72 h); format: cell-based; conditions: read-out: IC50 (nM) Ba/F3(EML4-ALK)
T1 construct: fused on or other part: Q9HC35 (Echinoderm microtubule-associated protein-like 4)
Protocol: Assay of activity on Ba/F3(EML4-ALK) cells
(1) Ba/F3(EML4-ALK) cells were cultured according to the requirements of ATCC, incubated in an incubator at 37° C. and 5% CO2, and analyzed by index; cells with viability of >90% can be used in the assay, and cells were seeded in a 384-well plate (PerkinElmer, 6007680) with 700 cells/well, 30 μl/well.
(2) A compound stock solution was prepared, and diluted 3× to obtain a compound dilution; 30 nL of the serial dilution was added to a 384-well plate (784075, Greiner) by Echo 550, and cells were incubated in an incubator at 37° C. and 5% CO2 for 72 h.
(3) 30 μL of CTG was added to each well, and the 384-well plate was shaken on a Plate shaker (QILINBEIER, QB-9002); the 384-well plate was incubated in the dark at 37° C. and 5% CO2 for 30 min, and the chemiluminescence value was read by Envision (PerkinElmer, EnVision 2104).
The percent inhibition rate (% inhibition) was calculated by the formula below
LUMcmpd: Luminescence value of assay compound.
LUMpositive: Average LUM value of positive drug at a concentration of 10 μM.
LUM^vehicle: Average LUM value of negative control group without drug treatment.
(§1) The nonlinear regression curve (dose response-variable slope) between the value of inhibition rate (%) and the logarithm of compound concentration was fitted with graphpad prism 8.0, the effect dose curve of compound was drawn, and the IC50 value was calculated.
Y=Bottom+(Top−Bottom)/(1+10^((LogIC50−X)*HillSlope))
X-axis: logarithm of compound concentration; Y axis: inhibition rate (% inhibition).

[2] = molecular target: Ba/F3(EGFR^Del19/T790M/C797S) cells (Homo sapiens, UniProt P00533, DEL746-750/T790M/C797S, cells depend on it); test: Assay of activity on Ba/F3 cells (CTG, 72 h); format: cell-based; conditions: read-out: IC50 (nM) Ba/F3 (EGFR^Del19/T790M/C797S)
Chain of Ba/F3(EGFR^Del19/T790M/C797S) cells (P00533 with tags, fused parts or gaps DEL746-750/T790M/C797S): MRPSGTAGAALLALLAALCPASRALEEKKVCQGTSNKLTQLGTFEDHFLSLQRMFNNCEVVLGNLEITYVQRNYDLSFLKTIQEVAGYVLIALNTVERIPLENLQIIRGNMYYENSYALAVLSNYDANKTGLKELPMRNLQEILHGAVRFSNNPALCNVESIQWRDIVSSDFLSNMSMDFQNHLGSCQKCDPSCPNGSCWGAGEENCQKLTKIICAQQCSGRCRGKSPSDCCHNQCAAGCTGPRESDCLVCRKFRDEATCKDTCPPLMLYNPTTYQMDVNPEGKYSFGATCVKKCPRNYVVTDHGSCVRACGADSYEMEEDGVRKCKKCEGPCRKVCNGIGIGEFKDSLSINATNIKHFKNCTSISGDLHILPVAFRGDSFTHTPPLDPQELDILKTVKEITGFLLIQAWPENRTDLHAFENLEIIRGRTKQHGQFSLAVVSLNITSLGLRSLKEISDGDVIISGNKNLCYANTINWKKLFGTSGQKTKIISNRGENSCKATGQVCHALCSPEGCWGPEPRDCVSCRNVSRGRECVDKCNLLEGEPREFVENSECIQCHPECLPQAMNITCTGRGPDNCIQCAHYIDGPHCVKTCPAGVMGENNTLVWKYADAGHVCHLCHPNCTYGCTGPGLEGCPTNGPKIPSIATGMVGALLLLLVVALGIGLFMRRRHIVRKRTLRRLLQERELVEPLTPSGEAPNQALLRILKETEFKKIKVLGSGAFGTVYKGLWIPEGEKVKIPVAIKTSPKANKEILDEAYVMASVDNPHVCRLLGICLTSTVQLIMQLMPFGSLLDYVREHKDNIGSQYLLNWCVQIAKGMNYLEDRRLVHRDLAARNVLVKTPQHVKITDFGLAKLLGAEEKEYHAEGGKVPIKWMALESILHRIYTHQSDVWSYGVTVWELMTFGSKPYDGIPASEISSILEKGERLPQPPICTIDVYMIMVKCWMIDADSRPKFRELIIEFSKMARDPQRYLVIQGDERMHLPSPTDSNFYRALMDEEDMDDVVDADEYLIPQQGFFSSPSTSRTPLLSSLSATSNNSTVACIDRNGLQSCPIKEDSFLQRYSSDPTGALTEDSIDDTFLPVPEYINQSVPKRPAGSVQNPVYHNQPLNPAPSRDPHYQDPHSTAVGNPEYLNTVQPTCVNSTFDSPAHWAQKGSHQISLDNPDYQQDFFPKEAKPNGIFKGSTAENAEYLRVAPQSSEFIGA
In short: (§2)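 Ba/F3 cells dependent on each EGFR triple mutant were exposed to 3-fold compound dilutions for 72 h at 37° C, 5% CO2, with CellTiter-Glo luminescence as the read-out.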

[3] = molecular target: Ba/F3(EGFR^L858R/T790M/C797S) cells (Homo sapiens, UniProt P00533, T790M/C797S/L858R, cells depend on it); test: Assay of activity on Ba/F3 cells (CTG, 72 h); format: cell-based; conditions: read-out: IC50 (nM) Ba/F3 (EGFR^L858R/T790M/C797S)
Chain of Ba/F3(EGFR^L858R/T790M/C797S) cells (P00533 whole entry T790M/C797S/L858R): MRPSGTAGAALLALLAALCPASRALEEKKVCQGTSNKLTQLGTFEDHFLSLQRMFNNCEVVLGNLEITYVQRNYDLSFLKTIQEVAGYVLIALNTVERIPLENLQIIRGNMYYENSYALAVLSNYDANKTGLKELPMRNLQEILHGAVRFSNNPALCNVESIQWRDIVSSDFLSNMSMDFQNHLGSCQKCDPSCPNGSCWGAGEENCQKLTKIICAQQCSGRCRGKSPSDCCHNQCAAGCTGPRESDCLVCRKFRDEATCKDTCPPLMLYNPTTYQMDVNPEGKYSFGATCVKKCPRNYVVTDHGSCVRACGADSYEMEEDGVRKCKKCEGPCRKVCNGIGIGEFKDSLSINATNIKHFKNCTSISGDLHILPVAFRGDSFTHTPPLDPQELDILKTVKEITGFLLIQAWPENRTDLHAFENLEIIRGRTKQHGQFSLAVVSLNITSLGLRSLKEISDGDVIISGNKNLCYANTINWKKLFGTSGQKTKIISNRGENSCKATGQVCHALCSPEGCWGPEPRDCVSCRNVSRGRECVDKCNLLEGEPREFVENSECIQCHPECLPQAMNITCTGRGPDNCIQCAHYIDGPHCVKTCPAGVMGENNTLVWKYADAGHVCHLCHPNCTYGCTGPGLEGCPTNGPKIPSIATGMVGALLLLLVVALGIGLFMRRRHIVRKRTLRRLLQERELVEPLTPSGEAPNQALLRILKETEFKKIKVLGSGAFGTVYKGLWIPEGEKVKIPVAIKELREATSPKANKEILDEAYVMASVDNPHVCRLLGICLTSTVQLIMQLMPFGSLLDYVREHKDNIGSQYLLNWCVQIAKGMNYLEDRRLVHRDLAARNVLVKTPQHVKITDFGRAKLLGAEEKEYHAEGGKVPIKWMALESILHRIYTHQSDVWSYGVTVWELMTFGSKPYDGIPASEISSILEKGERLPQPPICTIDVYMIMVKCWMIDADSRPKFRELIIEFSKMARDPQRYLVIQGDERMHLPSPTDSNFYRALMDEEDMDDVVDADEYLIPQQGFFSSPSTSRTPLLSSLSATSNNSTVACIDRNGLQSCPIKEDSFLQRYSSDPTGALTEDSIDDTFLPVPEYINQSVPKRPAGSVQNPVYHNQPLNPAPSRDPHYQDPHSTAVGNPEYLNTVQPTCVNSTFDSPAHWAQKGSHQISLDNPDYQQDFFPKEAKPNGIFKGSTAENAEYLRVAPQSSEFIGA
In short: as §2

[4] = molecular target: EGFR^L858R/T790M/C797S (Homo sapiens, UniProt P00533, C797S/L858R/T790M); test: EGFR inhibitory activity assay (TK-substrate-biotin/ATP, 665/615 ratio); format: biochemical; conditions: kinase inhibition
Protocol: EGFR Inhibitory Activity Assay
(1) A compound stock solution was prepared and diluted 3× to obtain a compound dilution; 10 nL of the compound dilution was transferred to a 384-well plate (784075, Greiner) by Echo 550;
(2) The plate was sealed, and centrifuged at 1,000 g for 1 min;
(4) 5 μl of the 2×EGFR protein working solution was added to the 384-well plate from step (2), centrifuged at 1,000 g for 30 s, and allowed to stand at room temperature (mixed thoroughly) for 10 min;
(6) 5 µL of the TK-substrate-biotin and ATP (the mixture prepared in step (5)) was added to the 384-well plate from step (4) to initiate the reaction;
(7) The mixture was centrifuged at 1,000 g for 30 s; the plate was sealed, and allowed to stand (and reacted) at room temperature for 40 min;
(8) 4×Sa-XL 665 and TK-antibody-Cryptate were prepared with detection buffer;
(9) 5 µL of the Sa-XL 665 and 5 µL of the TK-antibody-Cryptate were added successively to the 384-well plate from step (7);
(10) The mixture was centrifuged at 1,000 g for 30 s, and allowed to stand (reacted) at room temperature for 1 h;
(11) The fluorescence values were read at 615 nm and 665 nm by enzyme labeling instrument (PerkinElmer, 74785).
The ratio (665/615) of each well was calculated.
Formula of inhibition rate (%): […]
Ratiocmpd: Ratio (665/615) value of assay compound.
Ratiopositive: Average ratio (665/615) value of positive control.
Ratiovehicle: Average ratio (665/615) value of negative control.
as §1

T1 sequence (Q9UM73 whole entry, change not shown, the tested form may be a part): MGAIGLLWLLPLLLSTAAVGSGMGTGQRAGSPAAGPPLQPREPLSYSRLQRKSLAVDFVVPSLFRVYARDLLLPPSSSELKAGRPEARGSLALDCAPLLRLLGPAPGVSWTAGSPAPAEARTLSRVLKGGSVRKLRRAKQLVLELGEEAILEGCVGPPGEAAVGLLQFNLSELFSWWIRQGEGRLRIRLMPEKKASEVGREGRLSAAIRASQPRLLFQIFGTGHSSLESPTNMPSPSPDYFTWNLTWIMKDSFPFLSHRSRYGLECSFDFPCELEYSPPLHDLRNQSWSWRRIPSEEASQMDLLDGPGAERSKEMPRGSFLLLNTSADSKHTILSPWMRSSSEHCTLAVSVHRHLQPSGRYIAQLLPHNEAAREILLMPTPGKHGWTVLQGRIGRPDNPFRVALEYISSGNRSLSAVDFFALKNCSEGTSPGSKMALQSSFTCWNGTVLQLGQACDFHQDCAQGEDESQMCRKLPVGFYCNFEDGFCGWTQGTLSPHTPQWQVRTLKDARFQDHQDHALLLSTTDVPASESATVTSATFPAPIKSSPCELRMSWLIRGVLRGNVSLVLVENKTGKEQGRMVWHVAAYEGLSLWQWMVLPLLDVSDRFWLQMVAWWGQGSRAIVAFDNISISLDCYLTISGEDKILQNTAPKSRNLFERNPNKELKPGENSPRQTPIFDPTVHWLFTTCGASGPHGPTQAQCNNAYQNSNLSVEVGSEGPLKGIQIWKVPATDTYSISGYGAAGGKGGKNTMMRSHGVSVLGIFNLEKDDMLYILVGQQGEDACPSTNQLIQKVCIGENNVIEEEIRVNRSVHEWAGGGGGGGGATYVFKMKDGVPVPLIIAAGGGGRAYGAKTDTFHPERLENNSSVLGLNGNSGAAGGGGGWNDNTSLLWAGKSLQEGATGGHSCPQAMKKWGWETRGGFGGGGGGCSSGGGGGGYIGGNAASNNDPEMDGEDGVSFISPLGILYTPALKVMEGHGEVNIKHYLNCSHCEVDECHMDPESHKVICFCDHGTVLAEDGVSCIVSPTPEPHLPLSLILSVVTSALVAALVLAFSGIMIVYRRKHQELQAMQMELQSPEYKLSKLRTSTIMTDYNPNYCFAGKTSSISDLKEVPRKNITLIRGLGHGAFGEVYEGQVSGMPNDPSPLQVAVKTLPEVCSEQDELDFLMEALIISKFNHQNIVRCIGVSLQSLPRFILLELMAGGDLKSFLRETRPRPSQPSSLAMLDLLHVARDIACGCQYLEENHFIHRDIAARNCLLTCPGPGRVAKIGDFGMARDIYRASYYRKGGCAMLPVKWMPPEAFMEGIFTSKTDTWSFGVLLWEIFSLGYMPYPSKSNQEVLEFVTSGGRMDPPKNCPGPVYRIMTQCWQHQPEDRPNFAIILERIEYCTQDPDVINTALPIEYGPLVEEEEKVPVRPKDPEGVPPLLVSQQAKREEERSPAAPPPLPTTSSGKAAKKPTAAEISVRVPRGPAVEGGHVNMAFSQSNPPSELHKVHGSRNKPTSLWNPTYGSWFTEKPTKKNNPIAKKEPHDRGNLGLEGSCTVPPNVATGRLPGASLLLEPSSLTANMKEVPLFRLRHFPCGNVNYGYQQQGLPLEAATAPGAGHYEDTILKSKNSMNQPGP

Row | GI50 [1] [nM] | GI50 [2] [nM] | GI50 [3] [nM] | IC50 [4] [nM] | SMILES
1 | 1 to 100 | 1 to 100 | 1 to 100 | – | COc1cc(N2CCC(N3CCN(CCCCCCCC#Cc4cccc5c4CN(C4CCC(=O)NC4=O)C5=O)CC3)CC2)c(C)cc1Nc1ncc(Br)c(Nc2ccc3nccnc3c2P(C)(C)=O)n1 (centres unmarked) [Compound C183, 3-(4-(9-(4-(1-(4-((5-bromo-4-((5-(dimethylphosphoryl)quinoxalin-6-yl)amino)pyrimidin-2-yl)amino)-5-methoxy-2-methylphenyl)piperidin-4-yl)piperazin-1-yl)non-1-yn-1-yl)-1-oxoisoindolin-2-yl)piperidine-2,6-dione]
2 | > 300 | 1 to 100 | – | – | COc1cc(N2CCC(N3CCN(CCCCCCCCC#Cc4cccc5c4CN(C4CCC(=O)NC4=O)C5=O)CC3)CC2)c(C)cc1Nc1ncc(Br)c(Nc2ccc3nccnc3c2P(C)(C)=O)n1 (centres unmarked) [Compound C188, 3-(4-(10-(4-(1-(4-((5-bromo-4-((5-(dimethylphosphoryl)quinoxalin-6-yl)amino)pyrimidin-2-yl)amino)-5-methoxy-2-methylphenyl)piperidin-4-yl)piperazin-1-yl)dec-1-yn-1-yl)-1-oxoisoindolin-2-yl)piperidine-2,6-dione]
3 | 101 to 200 | 1 to 100 | – | – | COc1cc(N2CCC3(CCN(CCCCCCCCC#Cc4cccc5c4CN(C4CCC(=O)NC4=O)C5=O)CC3)CC2)c(C)cc1Nc1ncc(Br)c(Nc2ccc3nccnc3c2P(C)(C)=O)n1 (centres unmarked) [Compound C189, 3-(4-(10-(9-(4-((5-bromo-4-((5-(dimethylphosphoryl)quinoxalin-6-yl)amino)pyrimidin-2-yl)amino)-5-methoxy-2-methylphenyl)-3,9-diazaspiro[5.5]undecan-3-yl)dec-1-yn-1-yl)-1-oxoisoindolin-2-yl)piperidine-2,6-dione]
4 | 1 to 100 | 1 to 100 | 1 to 100 | – | COc1cc(N2CCC(N3CCN(CCCCCCCOc4cccc5c4CN(C4CCC(=O)NC4=O)C5=O)CC3)CC2)c(C)cc1Nc1ncc(Br)c(Nc2ccc3nccnc3c2P(C)(C)=O)n1 (centres unmarked) [Compound C214, 3-(4-((7-(4-(1-(4-((5-bromo-4-((5-(dimethylphosphoryl)quinoxalin-6-yl)amino)pyrimidin-2-yl)amino)-5-methoxy-2-methylphenyl)piperidin-4-yl)piperazin-1-yl)heptyl)oxy)-1-oxoisoindolin-2-yl)piperidine-2,6-dione]

More lines, now with the values behind:

Row | SMILES | GI50 [1] [nM] | GI50 [2] [nM] | GI50 [3] [nM] | IC50 [4] [nM]
5 | COc1cc(N2CCC3(CCN(CCCCCCCOc4cccc5c4C(=O)N(C4CCC(=O)NC4=O)C5=O)CC3)CC2)c(C)cc1Nc1ncc(Br)c(Nc2ccc3nccnc3c2P(C)(C)=O)n1 (centres unmarked) [Compound C47, 4-((7-(9-(4-((5-bromo-4-((5-(dimethylphosphoryl)quinoxalin-6-yl)amino)pyrimidin-2-yl)amino)-5-methoxy-2-methylphenyl)-3,9-diazaspiro[5.5]undecan-3-yl)heptyl)oxy)-2-(2,6-dioxopiperidin-3-yl)isoindoline-1,3-dione] | 101 to 200 | 101 to 200 | 101 to 200 | –
6 | COc1cc(N2CCC(N3CCN(CCCCCCCOc4cccc5c4C(=O)N(C4CCC(=O)NC4=O)C5=O)CC3)CC2)c(C)cc1Nc1ncc(Br)c(Nc2ccc3nccnc3c2P(C)(C)=O)n1 (centres unmarked) [Compound C158, 4-((7-(4-(1-(4-((5-bromo-4-((5-(dimethylphosphoryl)quinoxalin-6-yl)amino)pyrimidin-2-yl)amino)-5-methoxy-2-methylphenyl)piperidin-4-yl)piperazin-1-yl)heptyl)oxy)-2-(2,6-dioxopiperidin-3-yl)isoindoline-1,3-dione] | 201 to 300 | 1 to 100 | 101 to 200 | –
7 | [2H]C([2H])(CCCCCCOc1cccc2c1C(=O)N(C1CCC(=O)NC1=O)C2=O)N1CCN(C2CCN(c3ccc(Nc4ncc(Cl)c(Nc5ccccc5P(C)(C)=O)n4)c(OC)c3)CC2)CC1 (centres unmarked) [Compound C164, 4-((7-(4-(1-(4-((5-chloro-4-((2-(dimethylphosphoryl)phenyl)amino)pyrimidin-2-yl)amino)-3-methoxyphenyl)piperidin-4-yl)piperazin-1-yl)heptyl-7,7-dideuterium)oxy)-2-(2,6-dioxopiperidin-3-yl)isoindoline-1,3-dione] | 1 to 100 | 1 to 100 | – | 1 to 100
8 | COc1cc(N2CCC3(CCN(CCCCCC#Cc4ccc5c(c4)CN(C4CCC(=O)NC4=O)C5=O)CC3)CC2)c(C)cc1Nc1ncc(Br)c(Nc2ccc3nccnc3c2P(C)(C)=O)n1 (centres unmarked) [Compound C191, 3-(5-(7-(9-(4-((5-bromo-4-((5-(dimethylphosphoryl)quinoxalin-6-yl)amino)pyrimidin-2-yl)amino)-5-methoxy-2-methylphenyl)-3,9-diazaspiro[5.5]undecan-3-yl)hept-1-yn-1-yl)-1-oxoisoindolin-2-yl)piperidine-2,6-dione] | 101 to 200 | 1 to 100 | – | –
9 | COc1cc(N2CCC(N3CCN(CCCCCCCC#Cc4ccc5c(c4)CN(C4CCC(=O)NC4=O)C5=O)CC3)CC2)ccc1Nc1ncc(Cl)c(Nc2ccccc2P(C)(C)=O)n1 (centres unmarked) [Compound C195, 3-(5-(9-(4-(1-(4-((5-chloro-4-((2-(dimethylphosphoryl)phenyl)amino)pyrimidin-2-yl)amino)-3-methoxyphenyl)piperidin-4-yl)piperazin-1-yl)non-1-yn-1-yl)-1-oxoisoindolin-2-yl)piperidine-2,6-dione] | 1 to 100 | 1 to 100 | – | –
10 | COc1cc(N2CCC(N3CCN(CCCCCCCCC#Cc4ccc5c(c4)CN(C4CCC(=O)NC4=O)C5=O)CC3)CC2)ccc1Nc1ncc(Cl)c(Nc2ccccc2P(C)(C)=O)n1 (centres unmarked) [Compound C196, 3-(5-(10-(4-(1-(4-((5-chloro-4-((2-(dimethylphosphoryl)phenyl)amino)pyrimidin-2-yl)amino)-3-methoxyphenyl)piperidin-4-yl)piperazin-1-yl)dec-1-yn-1-yl)-1-oxoisoindolin-2-yl)piperidine-2,6-dione] | 1 to 100 | 1 to 100 | – | –
11 | COc1cc(N2CCC3(CCN(CCCCCCCOc4cccc5c4CN(C4CCC(=O)NC4=O)C5=O)CC3)CC2)c(C)cc1Nc1ncc(Br)c(Nc2ccc3nccnc3c2P(C)(C)=O)n1 (centres unmarked) [Compound C211, 3-(4-((7-(9-(4-((5-bromo-4-((5-(dimethylphosphoryl)quinoxalin-6-yl)amino)pyrimidin-2-yl)amino)-5-methoxy-2-methylphenyl)-3,9-diazaspiro[5.5]undecan-3-yl)heptyl)oxy)-1-oxoisoindolin-2-yl)piperidine-2,6-dione] | 1 to 100 | 1 to 100 | – | –
12 | COc1cc(N2CCC3(CCN(CCOCC#Cc4cc(F)cc5c4CN(C4CCC(=O)NC4=O)C5=O)CC3)CC2)c(C)cc1Nc1ncc(Br)c(Nc2ccc3nccnc3c2P(C)(C)=O)n1 (centres unmarked) [Compound C310, 3-(4-(3-(2-(9-(4-((5-bromo-4-((5-(dimethylphosphoryl)quinoxalin-6-yl)amino)pyrimidin-2-yl)amino)-5-methoxy-2-methylphenyl)-3,9-diazaspiro[5.5]undecan-3-yl)ethoxy)prop-1-yn-1-yl)-6-fluoro-1-oxoisoindolin-2-yl)piperidine-2,6-dione] | 1 to 100 | 1 to 100 | – | –

— patent US20220306659A1, “COMPOUND INHIBITING AND INDUCING DEGRADATION OF EGFR AND ALK” (BEIJING TIDE PHARMACEUTICAL CO., LTD., priority 2019, published 2022)
